Data on one compound can be found in patent US20010025105A1, “Certain substituted 1-aryl-3-piperazine-1'-yl propanones” (Molecular Geriatarics Corporation, priority 1997, published 2001).

This test relates to TG3 immunoreactivity in OKA treated MSN1a cells. Description: MSN1a cell culture model, ELISA with TG3 antibody, okadaic acid treated cells. It counts as cell-based, human. As to conditions: 1 μM OKA, 2 hrs at 37° C., read-out: IC50 for inhibition of TG3 immunoreactivity in OKA treated MSN1a cells. In short, it runs like this:
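Human MSN1a neuroblastoma cells (2×10^4/well) in KRH pH 7.4 were exposed 2 h at 37 °C to 1 μM okadaic acid plus 0–64 μM compound (0.26% DMSO final). Lysates were coated onto ELISA plates and probed with TG3 and an alkaline phosphatase secondary. Absorbance was read at 405 nm with p-nitrophenyl phosphate substrate.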
(In general: In an ELISA, binding on a coated surface is turned into a signal by an enzyme label.)

As usually defined, the IC50 is the point on the concentration scale where inhibition reaches its midpoint.

As for `Cl.Cl.O=C(CCN1CCN(Cc2ccccc2)CC1)c1ccc(F)c2ccccc12` [Example 21, 1-(4″-Fluoronaphth-1″-yl)-3-(4′-benzyl-1′-piperazinyl)-1-propanone dihydrochloride], the IC50 was 6.6 µM.
